Reference: patent US20140248218A1, “ROS-SENSITIVE FLUORESCENT PROBES” (The Regents of the University of California, priority 2013, published 2014)

Legend:
[1] = Fluorescence response of the probes to H2O2 (luminescence spectroscopy, fluorescence turn-on); type: physicochemical; conditions: for increase in fluorescence in response to excess H2O2 (fluorescence turn-on): 1 μM probe, 50 mM HEPES pH 7.5, H2O2 300 eq (300 μM), ratio of integrated final and initial emission; for change of emission on treatment with H2O2: 50 mM HEPES pH 7.5; for relation of relative emission to H2O2 concentration: 15 min incubation with H2O2, integrated emission
Protocol: Fluorescence emission spectra were recorded with a Perkin-Elmer LS-55 fluorescence spectrometer. To a 2.0 mL solution of probe of varying concentrations in HEPES buffer (50 mM, pH 7.5) was added H2O2 in HEPES to monitor fluorescence turn-on. Spectra were monitored over time at room temperature with quartz cuvettes.
To quantitate the fluorescence turn-on, a sample of each probe (1 μM in 50 mM HEPES pH 7.5) was prepared. An excess of H2O2 (300 eq, 300 μM) was added to the latent fluorophore and spectra were recorded until no increase in fluorescence intensity was observed, signifying a complete reaction. The collected initial and final emission spectrum were integrated, and the ratio reports the fluorescence turn on.
FBBBE and CBBE were evaluated for H2O2 sensitivity under simulated physiological conditions (50 mM HEPES, pH 7.5). For FBBBE, the installation of the benzyl protecting group forces the compound to remain in the closed lactone form, rendering FBBBE (and FBn) nonfluorescent. […] Along with the observed fluorescence increase, the absorption spectrum of FBBBE considerably changed upon H2O2 addition with a large increase in the visible absorption band (λmax=494 nm). The final spectrum recorded was identical to that of an authentic sample of fluorescein, providing additional proof that the probe was undergoing complete deprotection to the desired product (FIG. 7). […] FBBBE was incubated with different concentrations of H2O2 for 15 min and then the emission spectrum was collected.
The coumarin-based compound, CBBE, was nonfluorescent in the absence of H2O2. […] (FIG. 12).
(§1) Additional studies were performed to quantify the fluorescence turn-on for each probe to directly compare the sensitivity to H2O2. […] To determine the sensitivity of these probes in a more quantitative fashion, pseudo first-order kinetic measurements were performed using UV-Vis absorption spectroscopy. The observed rate constants for FBBBE and CBBE activation by H2O2 were kobs=3.1×10-5 s-1 and kobs=4.6×10-3 s-1, respectively. It was determined that the deprotection of CBBE was much faster than FBBBE. This may be likely due to the fact that FBBBE contains two boronic ester triggers that are required for complete release of the fluorophore. Recently, it has been shown that boronic ester based probes can be sensitive to other biologically relevant ROS, such as hypochlorite (—OCl) and peroxynitrite (—ONOO).^[26]

[2] = Solubility in aqueous buffer; type: physicochemical; conditions: ~1% DMSO (by volume), micromolar concentrations
Description: The corresponding control compound lacking the boronic ester trigger was also synthesized for evaluation (FIG. 3, CBn). Both CBBE and FBBBE were quite soluble in aqueous buffer, using only ˜1% DMSO (by volume) when preparing samples at micromolar concentrations.

[3] = tested on: mouse brain; experiment: Confocal fluorescence imaging of H2O2 in mouse brain tissue sections (ex vivo); conditions: for fluorescence turn-on in brain tissue: 50 μM compound 1 h, sections incubated with PBS or 100 μM H2O2
Protocol: (§2) 3-4 week old female C57BL/6J mice were purchased from Jackson Laboratory (Bar Harbor, Me.). Mice were sacrificed and perfused with sterile PBS. The brain and spinal cord were harvested and imbedded in Tissue-Tek® OCT Compound (Sakura Finetek USA, Torrance, Calif.) and frozen in dry ice before storage at −80° C. All animal studies were reviewed and approved by the University of California, San Diego Institutional Animal Care and Use Committee (La Jolla, Calif.).
(§3) For confocal microscopy, the frozen tissue was cut into 10-μm sections on a Leica cryomicrotome and mounted on slides. Tissue sections were fixed in ice-cold 95% ethanol for 15 min and rehydrated in PBS for 5 min at room temperature in a humidity chamber. Tissue sections were either incubated with PBS or 100 μM H2O2 for 1 h at room temperature in a humidity chamber, followed by a 1 h incubation with either 50 μM probe (FBBBE) or 50 μM control (FBn) and a 10 min nuclear stain (DAPI, 4′,6-diamidino-2-phenylindole). The sections were rinsed in PBS and hydrated in water. Coverslips were mounted using Aqua Mount (Thermo Scientific, Waltham, Mass.). Confocal images were obtained at 40× or 80× magnification on an Olympus FV1000 confocal laser scanning microscope. Images were processed using ImageJ software.
Cellular studies were extended to a more physiologically relevant model for H2O2 detection. H2O2 is particularly active in the brain and neuronal tissue, triggered by the metabolism of neurotransmitters.^[28] The brain and spinal cord from 3-4 week old female C57BL/6J mice were excised, frozen in OCT medium, and 10 μm sagittal cryosections were prepared for staining with FBBBE and FBn. At this age, the mice undergo extensive neuronal development and remodeling. Such activity has been associated with higher levels of neurotransmitter activity and ROS in both neurons and microglial cells in the brain. Consistent with the previous experiments, the sections were either incubated with PBS (unstimulated) or H2O2 (FIG. 6). […]

[4] = Fluorescent response of probe to hypochlorite compared with H2O2; type: physicochemical; conditions: 1 μM probe, 100 μM ROS, 50 mM HEPES pH 7.5, 25° C.
Protocol: FIG. 16. Histograms of fluorescent responses of 1 μM FBBBE to hydrogen peroxide (H2O2) and hypochlorite (OCl^−): (Data shown are for 100 μM of each ROS) hydrogen peroxide and hypochlorite were delivered from 30% and 5% aqueous solutions, respectively and spectra were acquired in 50 mM HEPES (pH 7.5) wherein all data were obtained after incubation with the appropriate ROS at 25° C.; the collected emission was integrated between […] (λex=480 nm), and bars represent relative responses (left to right) at 5 (white), 15 (light gray), 30 (gray), 45 (dark gray), and 60 min (black) after addition of ROS.
as §1, with “Recently, it has been shown that boronic ester based probes can be sensitive to other biologically relevant ROS, such as hypochlorite (—OCl) and peroxynitrite (—ONOO).^[26]” left out

[5] = tested on: mouse spinal cord; experiment: Confocal fluorescence imaging of H2O2 in mouse spinal cord tissue sections (ex vivo); conditions: 50 μM probe 1 h
Protocol: as §2
as §3, with “Coverslips were mounted using Aqua Mount (Thermo Scientific, Waltham, Mass.). Confocal images were obtained at 40× or 80× magnification on an Olympus FV1000 confocal laser scanning microscope. Images were processed using ImageJ software.” left out
To further investigate whether FBBBE is activated by truly endogenous levels of H2O2, the probe was evaluated in the spinal cord. […] The lack of fluorescence signal from the H2O2-treated samples may be due to an inability of FBBBE to penetrate the spinal cord tissues, which is then subsequently washed away before the image is taken.

[6] = tested on: RAW 264.7 cells; experiment: Confocal fluorescence imaging of H2O2 in RAW 264.7 macrophages; type: cell-based, Murine; conditions: for fluorescence in cells treated with PBS, LPS or H2O2: 50 μM compound 1 h, fixed RAW 264.7 cells
Protocol: RAW 264.7 macrophages were grown in DMEM supplemented with 10% heat-inactivated fetal bovine serum, 2 mM L-glutamine, 100 μg/mL penicillin, and 100 μg/mL streptomycin (Life Technologies, Carlsbad, Calif.). For confocal microscopy, the RAW 264.7 cells were seeded at 250,000 in glass bottom 35 mm dishes (MatTek Corporation, Ashland, Mass.) and post-adhering (5 h), some dishes were treated with 1 μg/mL of LPS (Sigma-Aldrich, St. Louis, Mo.) for 24 h. Other dishes were treated the next day after plating with either 100 μM H2O2 for 1 h or PBS for 1 h. Cells were washed twice with PBS and fixed in ice-cold 95% ethanol for 15 min. Cells were twice rinsed with PBS and incubated with either 50 μM probe (FBBBE) or 50 μM control (FBn) for 1 h at room temperature. Cells were washed twice with PBS and coverslips were mounted over cells using Aqua Mount (Thermo Scientific, Waltham, Mass.). Confocal images were obtained at 80× magnification on an Olympus FV1000 confocal laser scanning microscope. Images were processed using ImageJ software (NIH).
FBBBE was examined for H2O2 detection in biological samples via confocal microscopy. Murine macrophage RAW 264.7 cells were treated with PBS buffer (unstimulated cells), lipopolysaccharide (LPS, stimulated cells), or with exogenous H2O2, followed by incubation with either FBBBE (FIG. 5a-c) or FBn (FIG. 5d-f). The inflammatory effects of LPS in macrophages are well established and result in a burst of reactive oxygen species and reactive nitrogen intermediates among other inflammatory signatures.^[27] […] The cells are washed and fixed prior to incubating with the probe.

[7] = cited from earlier work

solubility in aqueous buffer [2]	SMILES	increase in fluorescence in response to excess H2O2 (fluorescence turn-on) [1] [fold]	change of emission on treatment with H2O2 [1]	relation of relative emission to H2O2 concentration [1]	fluorescence turn-on in brain tissue [3]	fluorescence in cells treated with PBS, LPS or H2O2 [6]	other results
quite soluble	CC1(C)OB(c2ccc(COc3ccc4ccc(=O)oc4c3)cc2)OC1(C)C [CBBE, 7-((4-(4,4,5,5-tetramethyl-1,3,2-dioxaborolan-2-yl)benzyl)oxy)-2H-chromen-2-one]	57	quickly turned on	linear correlation			
	O=c1ccc2ccc(OCc3ccccc3)cc2o1 [CBn, 7-(benzyloxy)-2H-chromen-2-one, reference compound]		no change				
quite soluble	CC1(C)OB(c2ccc(COc3ccc4c(c3)Oc3cc(OCc5ccc(B6OC(C)(C)C(C)(C)O6)cc5)ccc3C43OC(=O)c4ccccc43)cc2)OC1(C)C [FBBBE, 3′,6′-bis((4-(4,4,5,5-tetramethyl-1,3,2-dioxaborolan-2-yl)benzyl)oxy)-3H-spiro[isobenzofuran-1,9′-xanthen]-3-one]	52	large increase in fluorescence	linear correlation	sufficient to activate the probe	observed in all cells	effect of exogenous H2O2 on fluorescence in brain tissue ([3]; 50 μM probe, 100 μM H2O2 vs PBS): did not alter the fluorescence levels observed; sensitivity to other ROS (OCl-) compared to H2O2 [4]: less sensitive; fluorescence in spinal cord tissue with exogenous H2O2 ([5]; 100 μM H2O2, compared to brain tissue): minimal amount of fluorescence; probe activation in unstimulated spinal cord tissue ([5]; PBS): essentially inactive; mean fluorescence, PBS or H2O2 vs LPS treated cells ([6]; 50 μM probe, 1 μg/mL LPS 24 h, p<0.001): statistically different; mean fluorescence, PBS vs H2O2 treated cells ([6]; 50 μM probe, 100 μM H2O2 1 h): not statistically different
	O=C1OC2(c3ccc(OCc4ccccc4)cc3Oc3cc(OCc4ccccc4)ccc32)c2ccccc21 [FBn, 3′,6′-bis(benzyloxy)-3H-spiro[isobenzofuran-1,9′-xanthen]-3-one, reference compound]		does not show any changes		no fluorescence turn on was observed	no turn on of fluorescence in any of the cells	
	O=C1OC2(c3ccc(O)cc3Oc3cc(O)ccc32)c2ccccc21 [Fluorescein]						water solubility [7]: excellent water solubility
